Assay results as given in patent US12606541B2, “PPARg modulators and methods of use” (Eisai R&D Management Co., Ltd., priority 2020, dated 2026).
Read-outs that look alike come from different tables or passages of the source.

What was measured:
His6-TEV-PPARγ-(234-505) = target: T1, His6-TEV-PPARγ-(234-505) (Homo sapiens, UniProt P37231); test: TR-FRET Assay to Measure Co-R Peptide Recruitment to PPARγ; format: biochemical; conditions: Co-R peptide (SMRT-ID2) recruitment; top final concentration 20 μM; read-out: TR-FRET i-Ag; AC50
T1 construct: The His6-TEV-PPARγ-(234-505) protein for assay was expressed and purified; TEV cleavage site (N); made in house
T1 sequence (P37231 234-505): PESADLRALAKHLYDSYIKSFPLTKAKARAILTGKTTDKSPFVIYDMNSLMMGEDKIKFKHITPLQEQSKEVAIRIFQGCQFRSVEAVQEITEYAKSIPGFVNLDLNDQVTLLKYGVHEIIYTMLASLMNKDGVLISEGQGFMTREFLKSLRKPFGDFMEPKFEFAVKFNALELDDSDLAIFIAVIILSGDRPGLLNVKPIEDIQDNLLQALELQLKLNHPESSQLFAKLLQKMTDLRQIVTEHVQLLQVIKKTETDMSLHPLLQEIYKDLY
Procedure, shortened: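 His-tagged PPARγ (or controls) was preincubated with compound for 20 minutes at room temperature, then 5 nM anti-His terbium antibody and 200 nM FITC-labeled SMRT-ID2 corepressor peptide (final) were added for a further hour. TR-FRET signal was normalized to percent response using 500 nM T0070907 and DMSO controls.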

UM-UC-9 engineered cells = test: Cell proliferation / short-term viability assay, CellTiter-Glo 144 h; format: cell-based, human; conditions: read-out: CTGlo 144 h UMUC9.5, G150
Procedure, shortened: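 UM-UC-9 engineered assay-ready cells seeded at 500 cells/well in high-glucose DMEM/10% FBS, treated from dose-response plates, grown at 37° C, 5% CO2. CellTiter-Glo 2.0 luminescence read on day 7, with a day-0 pretreatment plate as T0 reference and DMSO wells as negative control.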

Row | SMILES | AC50 (His6-TEV-PPARγ-(234-505)) | IC50 (UM-UC-9 engineered cells; Homo sapiens, UM-UC-9, 144 h) | IC50 (UM-UC-9 engineered cells)
1 | COc1cc(-c2cc(C(=O)N3[C@@H]4CC[C@H]3C[C@H](C(=O)NC3CC[Si](C)(C)CC3)C4)n[nH]2)c(F)cn1 [Example 291, (1R,3s,5S)—N-(1,1-dimethylsilinan-4-yl)-8-(5-(5-fluoro-2-methoxypyridin-4-yl)-1H-pyrazole-3-carbonyl)-8-azabicyclo[3.2.1]octane-3-carboxamide] | 69.6 nM | 150 nM | –
2 | COc1cc(-c2cc(C(=O)N3CCC(C(=O)N[C@@H]4CCN(c5ccccc5F)C4)CC34CC4)n[nH]2)c(F)cn1 (stereo partly drawn) [Example 296, 4-[5-(5-fluoro-2-methoxypyridin-4-yl)-1H-pyrazole-3-carbonyl]-N—[(R)-1-(2-fluorophenyl)pyrrolidin-3-yl]-4-azaspiro[2.5]octane-7-carboxamide] | 19.8 nM | 4.1 nM | –
3 | Cc1cc(-c2cc(C(=O)N3CC[C@H](C(=O)NC4CCC5(CCO5)CC4)CC34CC4)n[nH]2)ncn1 (stereo partly drawn) [Example 300-B, (S)-4-(5-(6-methylpyrimidin-4-yl)-1H-pyrazole-3-carbonyl)-N-(1-oxaspiro[3.5]nonan-7-yl)-4-azaspiro[2.5]octane-7-carboxamide] | 995 nM | 1510 nM | –
4 | COc1cc(-c2nc(C(=O)N3[C@@H]4CC[C@H]3CC(C(=O)NC3CCC(O)(C(F)(F)F)CC3)C4)n[nH]2)c(F)cn1 (stereo partly drawn) [Example 305, (1R,3S,5S)-8-[5-(5-fluoro-2-methoxypyridin-4-yl)-1H-1,2,4-triazole-3-carbonyl]-N-[(1r,4r)-4-hydroxy-4-(trifluoromethyl)cyclohexyl]-8-azabicyclo[3.2.1]octane-3-carboxamide] | 217 nM | – | 2270 nM
5 | Cc1cc(-c2c[nH]c(C(=O)N3CCC(C(=O)N[C@H]4CC[C@@](O)(C(F)(F)F)CC4)CC34CC4)n2)c(O)cn1 (stereo partly drawn) [Example 310, 4-(4-(5-hydroxy-2-methylpyridin-4-yl)-1H-imidazole-2-carbonyl)-N-((1r,4r)-4-hydroxy-4-(trifluoromethyl)cyclohexyl)-4-azaspiro[2.5]octane-7-carboxamide] | 14 nM | 99 nM | –
6 | Cc1nccc(-c2cc(C(=O)N3[C@@H]4CC[C@H]3C[C@H](C(=O)N[C@H]3CC[C@@](O)(C(F)(F)F)CC3)C4)n[nH]2)c1C [Example 314, (1R,3s,5S)-8-(5-(2,3-dimethylpyridin-4-yl)-1H-pyrazole-3-carbonyl)-N-((1r,4R)-4-hydroxy-4-(trifluoromethyl)cyclohexyl)-8-azabicyclo[3.2.1]octane-3-carboxamide] | 347 nM | > 10000 nM | –
7 | Cc1cc(-c2cc(C(=O)N3[C@@H]4CC[C@H]3C[C@H](C(=O)N[C@H]3CC[C@@](O)(C(F)(F)F)CC3)C4)n[nH]2)c2cn[nH]c2n1 [Example 315, (1R,3s,5S)—N-((1r,4R)-4-hydroxy-4-(trifluoromethyl)cyclohexyl)-8-(5-(6-methyl-1H-pyrazolo[3,4-b]pyridin-4-yl)-1H-pyrazole-3-carbonyl)-8-azabicyclo[3.2.1]octane-3-carboxamide] | 863 nM | > 10000 nM | –
8 | CCc1cc(-c2cc(C(=O)N3[C@@H]4CC[C@H]3C[C@H](C(=O)N[C@H]3CC[C@@](O)(C(F)(F)F)CC3)C4)n[nH]2)ccn1 [Example 316, (1R,3s,5S)-8-(5-(2-ethylpyridin-4-yl)-1H-pyrazole-3-carbonyl)-N-((1r,4R)-4-hydroxy-4-(trifluoromethyl)cyclohexyl)-8-azabicyclo[3.2.1]octane-3-carboxamide] | 67.9 nM | 3390 nM | –
9 | O=C(N[C@H]1CC[C@@](O)(C(F)(F)F)CC1)[C@@H]1C[C@H]2CC[C@@H](C1)N2C(=O)c1cc(-c2ccnc(CO)c2)[nH]n1 [Example 317, (1R,3s,5S)—N-((1r,4R)-4-hydroxy-4-(trifluoromethyl)cyclohexyl)-8-(5-(2-(hydroxymethyl)pyridin-4-yl)-1H-pyrazole-3-carbonyl)-8-azabicyclo[3.2]octane-3-carboxamide] | 344 nM | > 10000 nM | –
10 | COc1cc(-c2cc(C(=O)N3[C@@H]4CC[C@H]3C[C@H](C(=O)NC3CCC5(CC3)OCC5C(F)(F)F)C4)n[nH]2)c(F)cn1 (stereo partly drawn) [Example 318] | 340 nM | 372 nM | –
11 | COc1cc(-c2cc(C(=O)N3[C@@H]4CC[C@H]3C[C@H](C(=O)NC3CCC5(CC3)OCC(F)C5F)C4)n[nH]2)c(F)cn1 (stereo partly drawn) [Example 319, (1R,3s,5S)—N-(3,41-difluoro-1-oxaspiro[4.5]decan-8-yl)-8-(5-(5-fluoro-2-methoxypyridin-4-yl)-1H-pyrazole-3-carbonyl)-8-azabicyclo[3.2.1]octane-3-carboxamide] | 124 nM | 232 nM | –
12 | COc1cc(-c2cc(C(=O)N3CC[C@H](C(=O)N[C@H]4CC[C@@](OCCN(C)C)(C(F)(F)F)CC4)CC34CC4)n[nH]2)c(F)cn1 [Example 329-A, (S)—N-((1r,4S)-4-(2-(dimethylamino)ethoxy)-4-(trifluoromethyl)cyclohexyl)-4-(5-(5-fluoro-2-methoxypyridin-4-yl)-1H-pyrazole-3-carbonyl)-4-azaspiro[2.5]octane-7-carboxamide] | 7.5 nM | 24.3 nM | –
13 | COc1cc(-c2cc(C(=O)N3CC[C@@H](C(=O)N[C@H]4CC[C@@](OCCN(C)C)(C(F)(F)F)CC4)CC34CC4)n[nH]2)c(F)cn1 [Example 329-B, (R)—N-((1r,4R)-4-(2-(dimethylamino)ethoxy)-4-(trifluoromethyl)cyclohexyl)-4-(5-(5-fluoro-2-methoxypyridin-4-yl)-1H-pyrazole-3-carbonyl)-4-azaspiro[2.5]octane-7-carboxamide] | 452 nM | 1650 nM | –
14 | COc1cc(-c2cc(C(=O)N3CC[C@H](C(=O)NCC45CCC(O)(C4)C5)CC34CC4)n[nH]2)c(F)cn1 [Example 334, (S)-4-(5-(5-fluoro-2-methoxypyridin-4-yl)-1H-pyrazole-3-carbonyl)-N-((4-hydroxybicyclo[2.1.1]hexan-1-yl)methyl)-4-azaspiro[2.5]octane-7-carboxamide] | 72.6 nM | 284 nM | –
15 | COc1cc(-c2cc(C(=O)N3CCC(C(=O)NCC45CCC(O)(C4)C5)CC34CC4)n[nH]2)c(F)cn1 (stereo not drawn) [Example 335, 4-(5-(5-fluoro-2-methoxypyridin-4-yl)-1H-pyrazole-3-carbonyl)-N-((4-hydroxybicyclo[2.1.1]hexan-1-yl)methyl)-4-azaspiro[2.5]octane-7-carboxamide] | 417 nM | 6150 nM | –
16 | COc1cc(-c2cc(C(=O)N3CC[C@H](C(=O)NCC45CC(O)(C4)C5)CC34CC4)n[nH]2)c(F)cn1 [Example 336, (S)-4-(5-(5-fluoro-2-methoxypyridin-4-yl)-1H-pyrazole-3-carbonyl)-N-((3-hydroxybicyclo[1.1.1]pentan-1-yl)methyl)-4-azaspiro[2.5]octane-7-carboxamide] | 109 nM | 1050 nM | –
17 | COc1cc(-c2cc(C(=O)N3CC[C@H](C(=O)NCC45COC(C)(C4)C5)CC34CC4)n[nH]2)c(F)cn1 [Example 343, (S)-4-(5-(5-fluoro-2-methoxypyridin-4-yl)-1H-pyrazole-3-carbonyl)-N-((1-methyl-2-oxabicyclo[2.1.1]hexan-4-yl)methyl)-4-azaspiro[2.5]octane-7-carboxamide] | 20 nM | 93 nM | –
18 | COc1cc(-c2cc(C(=O)N3CC[C@@H](C(=O)N[C@@H]4CCN(CC(C)(C)O)C4)CC34CC4)[nH]n2)c(F)cn1 [Example 344-A, (R)-4-(3-(5-fluoro-2-methoxypyridin-4-yl)-1H-pyrazole-5-carbonyl)-N—((R)-1-(2-hydroxy-2-methylpropyl)pyrrolidin-3-yl)-4-azaspiro[2.5]octane-7-carboxamide] | 14800 nM | > 10000 nM | –
19 | COc1cc(-c2cc(C(=O)N3CC[C@H](C(=O)N[C@@H]4CCN(CC(C)(C)O)C4)CC34CC4)[nH]n2)c(F)cn1 [Example 344-B, (S)-4-(3-(5-fluoro-2-methoxypyridin-4-yl)-1H-pyrazole-5-carbonyl)-N—((R)-1-(2-hydroxy-2-methylpropyl)pyrrolidin-3-yl)-4-azaspiro[2.5]octane-7-carboxamide] | 123 nM | 570 nM | –
20 | COc1cc(-c2cc(C(=O)N3CC[C@H](C(=O)NC4CCN(CC(C)(C)O)C4)CC34CC4)[nH]n2)c(F)cn1 (stereo partly drawn) [Example 345-A, (S)-4-(3-(5-Fluoro-2-methoxypyridin-4-yl)-1H-pyrazole-5-carbonyl)-N-(1-(2-hydroxy-2-methylpropyl)pyrrolidin-3-yl)-4-azaspiro[2,5]octane-7-carboxamide] | 161 nM | 445 nM | –
21 | COc1cc(-c2cc(C(=O)N3CC[C@@H](C(=O)N[C@H]4CCN(CC(C)(C)O)C4)CC34CC4)[nH]n2)c(F)cn1 [Example 345-B, (R)-4-(3-(5-Fluoro-2-methoxypyridin-4-yl)-1H-pyrazole-5-carbonyl)-N—((S)-1-(2-hydroxy-2-methylpropyl)pyrrolidin-3-yl)-4-azaspiro[2.5]octane-7-carboxamide] | 7250 nM | > 10000 nM | –
